# pIC50: −log10 of the molar value.
# Molecular target: T1, human TLR7 (Homo sapiens, UniProt Q9NYK1)
# T1 construct: host or cells: HEK293 (HEK-Blue hTLR7)
# T1 sequence (Q9NYK1 27-1049): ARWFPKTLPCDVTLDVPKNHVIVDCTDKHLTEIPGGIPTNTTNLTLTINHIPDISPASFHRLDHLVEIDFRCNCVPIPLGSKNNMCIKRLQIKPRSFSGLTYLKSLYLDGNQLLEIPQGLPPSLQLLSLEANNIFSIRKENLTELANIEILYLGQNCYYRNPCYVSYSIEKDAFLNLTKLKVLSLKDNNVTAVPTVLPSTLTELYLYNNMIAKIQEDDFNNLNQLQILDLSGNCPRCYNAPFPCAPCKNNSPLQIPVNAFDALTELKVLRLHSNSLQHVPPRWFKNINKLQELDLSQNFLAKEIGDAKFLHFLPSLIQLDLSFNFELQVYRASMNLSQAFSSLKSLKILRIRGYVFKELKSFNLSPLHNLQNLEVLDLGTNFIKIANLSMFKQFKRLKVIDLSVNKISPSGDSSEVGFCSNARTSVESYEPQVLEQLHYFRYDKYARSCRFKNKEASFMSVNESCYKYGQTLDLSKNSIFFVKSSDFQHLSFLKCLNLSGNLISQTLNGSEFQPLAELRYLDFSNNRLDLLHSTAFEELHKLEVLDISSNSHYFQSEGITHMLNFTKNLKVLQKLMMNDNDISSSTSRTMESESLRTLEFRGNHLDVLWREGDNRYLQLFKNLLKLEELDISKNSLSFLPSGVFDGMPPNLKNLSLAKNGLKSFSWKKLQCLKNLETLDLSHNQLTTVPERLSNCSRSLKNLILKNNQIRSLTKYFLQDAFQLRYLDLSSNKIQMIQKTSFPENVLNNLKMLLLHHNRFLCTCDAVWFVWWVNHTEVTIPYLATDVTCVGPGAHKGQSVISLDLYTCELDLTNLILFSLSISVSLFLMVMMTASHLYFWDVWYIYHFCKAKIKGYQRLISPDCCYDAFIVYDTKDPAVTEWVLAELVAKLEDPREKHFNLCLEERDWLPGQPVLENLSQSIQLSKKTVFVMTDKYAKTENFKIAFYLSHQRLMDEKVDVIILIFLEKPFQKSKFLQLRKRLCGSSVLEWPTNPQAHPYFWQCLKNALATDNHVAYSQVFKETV
# Assay: HEK293-Blue-hTLR-7 cells assay
# Type: cell-based
# Details: HEK293-Blue-hTLR7 cells, R848 stimulation, 20 hrs, SEAP reporter; read-out: HEK/hTLR7 IC50
# From the text: HEK293-Blue-hTLR-7 Cells Assay:
# A stable HEK293-Blue-hTLR-7 cell line was purchased from InvivoGen (Cat. #: hkb-htlr7, San Diego, Calif., USA). These cells were originally designed for studying the stimulation of human TLR7 by monitoring the activation of NF-κB. A SEAP (secreted embryonic alkaline phosphatase) reporter gene was placed under the control of the IFN-β minimal promoter fused to five NF-κB and AP-1-binding sites. The SEAP was induced by activating NF-κB and AP-1 via stimulating HEK-Blue hTLR7 cells with TLR7 ligands. Therefore the reporter expression was declined by TLR7 antagonist under the stimulation of a ligand, such as R848 (Resiquimod), for incubation of 20 hrs. The cell culture supernatant SEAP reporter activity was determined using QUANTI-Blue™ kit (Cat. #: rep-qbl, Invivogen, San Diego, Ca, USA) at a wavelength of 640 nm, a detection medium that turns purple or blue in the presence of alkaline phosphatase.
# HEK293-Blue-hTLR7 cells were incubated at a density of 250,000˜450,000 cells/mL in a volume of 170 μL in a 96-well plate in Dulbecco's Modified Eagle's medium (DMEM) containing 4.5 g/L glucose, 50 U/mL penicillin, […], […], 2 mM L-glutamine, 10% (v/v) heat-inactivated fetal bovine serum with addition of 20 μL test compound in a serial dilution in the presence of final DMSO at 1% and 10 μL of 20 uM R848 in above DMEM, perform incubation under 37° C. in a CO2 incubator for 20 hrs. Then 20 μL of the supernatant from each well was incubated with 180 μL Quanti-blue substrate solution at 37° C. for 2 hrs and the absorbance was read at 620-655 nm using a spectrophotometer. The signaling pathway that TLR7 activation leads to downstream NF-κB activation has been widely accepted, and therefore similar reporter assay was modified for evaluating TLR7 antagonist.
row,Structure (SMILES),pIC50
1,"C[C@@H]1CN(c2ccc(C#N)c3ncccc23)C[C@@H]2c3ccc(N4CCCNCC4)nc3CN12 [Example 20, 5-[(2S,6R)-11-(1,4-diazepan-1-yl)-6-methyl-4,7,10-triazatricyclo[7.4.0.02,7]trideca-1(9),10,12-trien-4-yl]quinoline-8-carbonitrile]",8.70
2,"C[C@@H]1CN(c2ccc(C#N)n3nccc23)C[C@@H]2c3ccc(N4C[C@@H]5C[C@H]4CN5)nc3CN12 [Example 21, 4-[(2S,6R)-11-[(1S,4S)-2,5-diazabicyclo[2.2.1]heptan-2-yl]-6-methyl-4,7,10-triazatricyclo[7.4.0.02,7]trideca-1(9),10,12-trien-4-yl]pyrazolo[1,5-a]pyridine-7-carbonitrile]",8.15
3,"[2H]c1ccc2c(N3C[C@@H](C)N4Cc5nc(OC6CCNCC6)ccc5[C@H]4C3)ccc(C#N)c2n1 [Example 24, 2-Deuterio-5-[(2S,6R)-6-methyl-11-(4-piperidyloxy)-4,7,10-triazatricyclo[7.4.0.02,7]trideca-1(9),10,12-trien-4-yl]quinoline-8-carbonitrile]",9.00

# The remaining compounds from weak to strong by pIC50, led by results:
row,pIC50,Structure (SMILES)
1,8.77,"[2H]c1ccc2c(N3C[C@@H](C)N4Cc5nc(C6CCNCC6)ccc5[C@H]4C3)ccc(C#N)c2n1 [Example 23, 2-Deuterio-5-[(2S,6R)-6-methyl-11-(4-piperidyl)-4,7,10-triazatricyclo[7.4.0.02,7]trideca-1(9),10,12-trien-4-yl]quinoline-8-carbonitrile]"
2,9.00,"[2H]c1ccc2c(N3C[C@@H](C)N4Cc5nc(O[C@H]6CCNC6)ccc5[C@H]4C3)ccc(C#N)c2n1 [Example 25, 2-Deuterio-5-[(2S,6R)-6-methyl-11-[(3S)-pyrrolidin-3-yl]oxy-4,7,10-triazatricyclo[7.4.0.02,7]trideca-1(9),10,12-trien-4-yl]quinoline-8-carbonitrile]"

# Reference: patent US12503471B2, “Triazatricycle compounds for the treatment of autoimmune disease” (Hoffmann-La Roche Inc., priority 2019, dated 2025)
